{"source": "the supplement of paper PMC11208160"}
{"assay": "recombinant UMI read abundance after kanamycin selection (control-corrected) (log10(CPM+1)); higher = more efficient recombination; extreme values may be limits of the assay; sequences stand for … in AGTGCAGAGAAAATCGGCCAGTTTTCTCTGCCTGCAGTCCGCATGCCGTGGGACCCCTTGGGTTCTAACCTGTTGCCTAGATTTATGCAGCGGACTGCCTTTCTCCCAAAGTGATAAACCGG…AGGTTGGTTTCACT; site = the 11-nt donor", "method_in_brief": "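For the IS621 bridge recombinase, a pooled Escherichia coli screen tested donor and donor-binding-loop pairs. Cells received the pair library together with a target plasmid encoding a fixed target and T7-inducible recombinase, then went onto IPTG (0.07 mM) plus kanamycin or unselected plates in duplicate. After PCR across the donor–target junction and sequencing, recombinant UMI counts were normalized to CPM, averaged, and scaled by control-derived factors. Each value is given as log10(CPM+1).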"}
{"sequence": "ATAACGCCATGGACCGGTTTTCCCGGTAATCCGTATTTGAC (site ATAACGCCTGT)", "recombinant UMI read abundance (log10)": 0.696}
{"sequence": "ATAACGCCATGGACCGGTTTTCCCGGTAATCCGTATTTGAC (site ATAAGGCCTGT)", "recombinant UMI read abundance (log10)": 0}
{"sequence": "ATAACGCCATGGACCGGTTTTCCCGGTAATCCGTATTTGAC (site ATAATGCCTGT)", "recombinant UMI read abundance (log10)": 0}
{"sequence": "ATAAGACCATGGACCGGTTTTCCCGGTAATCCGTATTTGAC (site ATAAGACCTGT)", "recombinant UMI read abundance (log10)": 0}
{"sequence": "ATAAGACCATGGACCGGTTTTCCCGGTAATCCGTATTTGAC (site ATAAGCCCTGT)", "recombinant UMI read abundance (log10)": 0}
{"sequence": "ATAAGACCATGGACCGGTTTTCCCGGTAATCCGTATTTGAC (site ATAAGGCCTGT)", "recombinant UMI read abundance (log10)": 0}
{"sequence": "ATAAGACCATGGACCGGTTTTCCCGGTAATCCGTATTTGAC (site ATAAGTCCTGT)", "recombinant UMI read abundance (log10)": 0}
{"sequence": "ATAAGGCCATGGACCGGTTTTCCCGGTAATCCGTATTTGAC (site AAAAGGCCTGT)", "recombinant UMI read abundance (log10)": 0}
{"sequence": "ATAAGGCCATGGACCGGTTTTCCCGGTAATCCGTATTTGAC (site ACAAGGCCTGT)", "recombinant UMI read abundance (log10)": 0}
{"sequence": "ATAAGGCCATGGACCGGTTTTCCCGGTAATCCGTATTTGAC (site AGAAGGCCTGT)", "recombinant UMI read abundance (log10)": 0}
{"sequence": "ATAAGGCCATGGACCGGTTTTCCCGGTAATCCGTATTTGAC (site ATAAAGCCTGT)", "recombinant UMI read abundance (log10)": 0}
{"sequence": "ATAAGGCCATGGACCGGTTTTCCCGGTAATCCGTATTTGAC (site ATAACGCCTGT)", "recombinant UMI read abundance (log10)": 0.0185}
{"sequence": "ATAAGGCCATGGACCGGTTTTCCCGGTAATCCGTATTTGAC (site ATAAGACCTGT)", "recombinant UMI read abundance (log10)": 0}
{"sequence": "ATAAGGCCATGGACCGGTTTTCCCGGTAATCCGTATTTGAC (site ATAAGCCCTGT)", "recombinant UMI read abundance (log10)": 0}
{"sequence": "ATAAGGCCATGGACCGGTTTTCCCGGTAATCCGTATTTGAC (site ATAAGGACTGT)", "recombinant UMI read abundance (log10)": 0.956}
{"sequence": "ATAAGGCCATGGACCGGTTTTCCCGGTAATCCGTATTTGAC (site ATAAGGCCTAT)", "recombinant UMI read abundance (log10)": 0.214}
{"sequence": "ATAAGGCCATGGACCGGTTTTCCCGGTAATCCGTATTTGAC (site ATAAGGCCTCT)", "recombinant UMI read abundance (log10)": 0.0671}
{"sequence": "ATAAGGCCATGGACCGGTTTTCCCGGTAATCCGTATTTGAC (site ATAAGGCCTGA)", "recombinant UMI read abundance (log10)": 0}
{"sequence": "ATAAGGCCATGGACCGGTTTTCCCGGTAATCCGTATTTGAC (site ATAAGGCCTGC)", "recombinant UMI read abundance (log10)": 0.147}
{"sequence": "ATAAGGCCATGGACCGGTTTTCCCGGTAATCCGTATTTGAC (site ATAAGGCCTGG)", "recombinant UMI read abundance (log10)": 0}
{"sequence": "ATAAGGCCATGGACCGGTTTTCCCGGTAATCCGTATTTGAC (site ATAAGGCCTGT)", "recombinant UMI read abundance (log10)": 0}
{"sequence": "ATAAGGCCATGGACCGGTTTTCCCGGTAATCCGTATTTGAC (site ATAAGGCCTTT)", "recombinant UMI read abundance (log10)": 0.131}
{"sequence": "ATAAGGCCATGGACCGGTTTTCCCGGTAATCCGTATTTGAC (site ATAAGGGCTGT)", "recombinant UMI read abundance (log10)": 0}
{"sequence": "ATAAGGCCATGGACCGGTTTTCCCGGTAATCCGTATTTGAC (site ATAAGGTCTGT)", "recombinant UMI read abundance (log10)": 1.87}
{"sequence": "ATAAGGCCATGGACCGGTTTTCCCGGTAATCCGTATTTGAC (site ATAAGTCCTGT)", "recombinant UMI read abundance (log10)": 0}
{"sequence": "ATAAGGCCATGGACCGGTTTTCCCGGTAATCCGTATTTGAC (site ATAATGCCTGT)", "recombinant UMI read abundance (log10)": 0}
{"sequence": "ATAAGGCCATGGACCGGTTTTCCCGGTAATCCGTATTTGAC (site ATACGGCCTGT)", "recombinant UMI read abundance (log10)": 0}
{"sequence": "ATAAGGCCATGGACCGGTTTTCCCGGTAATCCGTATTTGAC (site ATAGGGCCTGT)", "recombinant UMI read abundance (log10)": 0}
{"sequence": "ATAAGGCCATGGACCGGTTTTCCCGGTAATCCGTATTTGAC (site ATATGGCCTGT)", "recombinant UMI read abundance (log10)": 0.00516}
